The values that follow come from US20040077677A1, “Oral formulations” (Wyeth, priority 2002, published 2004).

One series has as its system tumor cells. The settings on record: histologically diverse tumor cells; cited from earlier work.
A short description of series [1]: Aqueous solubility of CCI-779. The format is physicochemical. The settings on record: water (aqueous). Here is the method: (§1) One obstacle towards the formulation of CCI-779 is its poor aqueous solubility (less than 1 μg/ml), which makes its bioavailability low.
The next series relates to human tumor xenografts. The settings on record: nude mice, diverse histological types; cited from earlier work.
Series [2] is described as follows: Aqueous stability of CCI-779. The format is physicochemical. The settings on record: cleavage of a lactone bond, forming ring opened seco-CCI-779. How it is done:
as §1

For the compound `CO[C@H]1C[C@@H]2CC[C@@H](C)[C@@](O)(O2)C(=O)C(=O)N2CCCC[C@H]2C(=O)O[C@H]([C@H](C)C[C@@H]2CC[C@@H](OC(=O)C(C)(CO)CO)[C@H](OC)C2)CC(=O)[C@H](C)/C=C(\C)[C@@H](O)[C@@H](OC)C(=O)[C@H](C)C[C@H](C)/C=C/C=C/C=C/1C` [CCI-779, rapamycin 42-ester with 3-hydroxy-2-(hydroxymethyl)-2-methylpropionic acid], the “inhibition of tumor cell growth in vitro” value in the series with tumor cells was “inhibit the growth of a number of histologically diverse tumor cells”. In series [1], this compound had a solubility of less than 1 µg/mL. Also, the “activity against human tumor xenografts” value in the series with human tumor xenografts is listed as “has activity against human tumor xenografts of diverse histological types”. The aqueous stability result in series [2] was “exhibits aqueous instability”.
